Measurements taken from patent publication US11198713B2, “Agents modulating beta-catenin functions and methods thereof” (FOG PHARMACEUTICALS, INC., priority 2017, dated 2021).

Each compound was assayed against T1, full-length beta-catenin (Axin site) (Homo sapiens, UniProt P35222) (assay: Competition fluorescence polarization assay (Axin site probe)). Conditions: competition fluorescence polarization, Table 2; read-out: in vitro FP EC50.
T1 construct: 15 nM full-length beta-catenin, 20 nM FITC labeled peptide in buffer
T1 sequence (P35222 1-781): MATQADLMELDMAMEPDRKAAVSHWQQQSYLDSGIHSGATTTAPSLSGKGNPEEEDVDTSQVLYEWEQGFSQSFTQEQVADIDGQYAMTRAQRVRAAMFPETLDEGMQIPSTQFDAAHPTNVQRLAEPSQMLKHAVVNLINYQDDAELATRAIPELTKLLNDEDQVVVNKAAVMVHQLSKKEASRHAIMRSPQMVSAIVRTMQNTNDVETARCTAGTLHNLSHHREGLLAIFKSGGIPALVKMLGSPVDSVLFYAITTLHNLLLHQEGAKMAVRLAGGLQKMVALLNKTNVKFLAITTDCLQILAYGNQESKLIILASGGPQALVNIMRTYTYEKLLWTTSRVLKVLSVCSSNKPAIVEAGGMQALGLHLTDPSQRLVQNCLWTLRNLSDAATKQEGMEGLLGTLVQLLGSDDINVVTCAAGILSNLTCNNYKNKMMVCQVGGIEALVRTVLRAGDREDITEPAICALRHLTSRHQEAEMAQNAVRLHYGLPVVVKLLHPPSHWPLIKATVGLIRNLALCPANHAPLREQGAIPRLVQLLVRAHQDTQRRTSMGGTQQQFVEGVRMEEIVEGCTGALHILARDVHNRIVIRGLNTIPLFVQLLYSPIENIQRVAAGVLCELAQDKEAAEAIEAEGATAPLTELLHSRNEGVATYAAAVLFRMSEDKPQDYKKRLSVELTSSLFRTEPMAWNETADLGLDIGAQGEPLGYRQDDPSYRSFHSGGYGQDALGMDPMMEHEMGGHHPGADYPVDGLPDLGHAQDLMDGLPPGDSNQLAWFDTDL
Assay type: binding
In short: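 Competition FP: 15 nM full-length β-catenin pre-incubated 5 min with 20 nM FITC-labelled stapled Axin-site peptide, then titrated peptide added (3-fold series from 5 μM) for 15 min in the dark. Buffer 50 mM Tris pH 8.0, 250 mM NaCl, 2% glycerol, 0.5 mM EDTA; duplicate reads.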

Row | EC50 | SMILES
1 | > 5 µM | CC[C@H](C)[C@@H]1NC(=O)[C@H](Cc2ccccn2)NC(=O)[C@H](C)NC(=O)[C@H](CC(=O)O)NC(=O)[C@H](CC(C)C)NC(=O)[C@H]([C@@H](C)CC)NC(=O)[C@](C)(NC(=O)[C@H](C)NC(C)=O)CCCCCCC=CCOC(=O)N2CC[C@@](C(=O)N[C@@H](Cc3c[nH]c4ccccc34)C(=O)N[C@H](C(=O)N[C@@H](Cc3c[nH]c4ccccc34)C(N)=O)C(C)C)(C2)NC1=O (single isomer, unassigned) [FP0563c Isomer 1, Ac-A-R8-I-L-D-A-2pyr-I-MB-W-V-W-NH2]
2 | > 5 µM | CC[C@H](C)[C@@H]1NC(=O)[C@H](Cc2ccccn2)NC(=O)[C@H](C)NC(=O)[C@H](CC(=O)O)NC(=O)[C@H](CC(C)C)NC(=O)[C@H]([C@@H](C)CC)NC(=O)[C@](C)(NC(=O)[C@H](C)NC(C)=O)CCCCCCC=CCOC(=O)N2CC[C@@](C(=O)N[C@@H](Cc3c[nH]c4ccccc34)C(=O)N[C@H](C(=O)N[C@@H](Cc3c[nH]c4ccccc34)C(N)=O)C(C)C)(C2)NC1=O (single isomer, unassigned) [FP0563c Isomer 2, Ac-A-R8-I-L-D-A-2pyr-I-MB-W-V-W-NH2]
3 | > 5 µM | CC[C@H](C)[C@@H]1NC(=O)[C@H](Cc2ccccn2)NC(=O)[C@H](C)NC(=O)[C@H](CC(=O)O)NC(=O)[C@H](CC(C)C)NC(=O)[C@H]([C@@H](C)CC)NC(=O)[C@](C)(NC(=O)[C@H](C)NC(C)=O)CCCCCCC=CCOC(=O)N2CC[C@@](C(=O)N[C@@H](Cc3ccc(O)cc3)C(=O)N[C@H](C(=O)N[C@@H](Cc3c[nH]c4ccccc34)C(N)=O)C(C)C)(C2)NC1=O (single isomer, unassigned) [FP0564c Isomer 1, Ac-A-R8-I-L-D-A-2pyr-I-MB-Y-V-W-NH2]
4 | > 5 µM | CC[C@H](C)[C@@H]1NC(=O)[C@H](Cc2ccccn2)NC(=O)[C@H](C)NC(=O)[C@H](CC(=O)O)NC(=O)[C@H](CC(C)C)NC(=O)[C@H]([C@@H](C)CC)NC(=O)[C@](C)(NC(=O)[C@H](C)NC(C)=O)CCCCCCC=CCOC(=O)N2CC[C@@](C(=O)N[C@@H](Cc3ccc(O)cc3)C(=O)N[C@H](C(=O)N[C@@H](Cc3c[nH]c4ccccc34)C(N)=O)C(C)C)(C2)NC1=O (single isomer, unassigned) [FP0564c Isomer 2, Ac-A-R8-I-L-D-A-2pyr-I-MB-Y-V-W-NH2]
5 | > 5 µM | CC[C@H](C)[C@@H]1NC(=O)[C@H](Cc2ccccn2)NC(=O)[C@H](C)NC(=O)[C@H](CC(=O)O)NC(=O)[C@H](CC(C)C)NC(=O)[C@H]([C@@H](C)CC)NC(=O)[C@](C)(NC(=O)[C@H](C)NC(C)=O)CCCCCCC=CCOC(=O)N2CC[C@@](C(=O)N[C@@H](CC3CCC3)C(=O)N[C@H](C(=O)N[C@@H](Cc3c[nH]c4ccccc34)C(N)=O)C(C)C)(C2)NC1=O (single isomer, unassigned) [FP0565c Isomer 1, Ac-A-R8-I-L-D-A-2pyr-I-MB-Cba-V-W-NH2]
6 | > 5 µM | CC[C@H](C)[C@@H]1NC(=O)[C@H](Cc2ccccn2)NC(=O)[C@H](C)NC(=O)[C@H](CC(=O)O)NC(=O)[C@H](CC(C)C)NC(=O)[C@H]([C@@H](C)CC)NC(=O)[C@](C)(NC(=O)[C@H](C)NC(C)=O)CCCCCCC=CCOC(=O)N2CC[C@@](C(=O)N[C@@H](CC3CCC3)C(=O)N[C@H](C(=O)N[C@@H](Cc3c[nH]c4ccccc34)C(N)=O)C(C)C)(C2)NC1=O (single isomer, unassigned) [FP0565c Isomer 2, Ac-A-R8-I-L-D-A-2pyr-I-MB-Cba-V-W-NH2]
7 | > 5 µM | CC[C@H](C)[C@@H]1NC(=O)[C@H](Cc2ccccn2)NC(=O)[C@H](C)NC(=O)[C@H](CC(=O)O)NC(=O)[C@H](CC(C)C)NC(=O)[C@H]([C@@H](C)CC)NC(=O)[C@](C)(NC(=O)[C@H](C)NC(C)=O)CCCCCCC=CCOC(=O)N2CC[C@@](C(=O)N[C@@H](CC3CCCCC3)C(=O)N[C@H](C(=O)N[C@@H](Cc3c[nH]c4ccccc34)C(N)=O)C(C)C)(C2)NC1=O (single isomer, unassigned) [FP0566c Isomer 1, Ac-A-R8-I-L-D-A-2pyr-I-MB-Cha-V-W-NH2]
8 | > 5 µM | CCC[C@H](NC(=O)[C@]12CCN(C1)C(=O)OCC=CCCCCCC[C@@](C)(NC(=O)[C@H](C)NC(C)=O)C(=O)N[C@@H]([C@@H](C)CC)C(=O)N[C@@H](CC(C)C)C(=O)N[C@@H](CC(=O)O)C(=O)N[C@@H](C)C(=O)N[C@@H](Cc1ccccn1)C(=O)N[C@@H]([C@@H](C)CC)C(=O)N2)C(=O)N[C@H](C(=O)N[C@@H](Cc1c[nH]c2ccccc12)C(N)=O)C(C)C (single isomer, unassigned) [FP0567c Isomer 1, Ac-A-R8-I-L-D-A-2pyr-I-MB-Nva-V-W-NH2]
9 | > 5 µM | CCC[C@H](NC(=O)[C@]12CCN(C1)C(=O)OCC=CCCCCCC[C@@](C)(NC(=O)[C@H](C)NC(C)=O)C(=O)N[C@@H]([C@@H](C)CC)C(=O)N[C@@H](CC(C)C)C(=O)N[C@@H](CC(=O)O)C(=O)N[C@@H](C)C(=O)N[C@@H](Cc1ccccn1)C(=O)N[C@@H]([C@@H](C)CC)C(=O)N2)C(=O)N[C@H](C(=O)N[C@@H](Cc1c[nH]c2ccccc12)C(N)=O)C(C)C (single isomer, unassigned) [FP0567c Isomer 2, Ac-A-R8-I-L-D-A-2pyr-I-MB-Nva-V-W-NH2]
10 | > 5 µM | CC[C@H](C)[C@@H]1NC(=O)[C@H](Cc2ccccn2)NC(=O)[C@H](C)NC(=O)[C@H](CC(=O)O)NC(=O)[C@H](CC(C)C)NC(=O)[C@H]([C@@H](C)CC)NC(=O)[C@](C)(NC(=O)[C@H](C)NC(C)=O)CCCCCCC=CCOC(=O)N2CC[C@@](C(=O)N[C@H](C(=O)N[C@H](C(=O)N[C@@H](Cc3c[nH]c4ccccc34)C(N)=O)C(C)C)C(C)(C)C)(C2)NC1=O (single isomer, unassigned) [FP0568c Isomer 1, Ac-A-R8-I-L-D-A-2pyr-I-MB-tLeu-V-W-NH2]
11 | > 5 µM | CC[C@H](C)[C@@H]1NC(=O)[C@H](Cc2ccccn2)NC(=O)[C@H](C)NC(=O)[C@H](CC(=O)O)NC(=O)[C@H](CC(C)C)NC(=O)[C@H]([C@@H](C)CC)NC(=O)[C@](C)(NC(=O)[C@H](C)NC(C)=O)CCCCCCC=CCOC(=O)N2CC[C@@](C(=O)N[C@H](C(=O)N[C@H](C(=O)N[C@@H](Cc3c[nH]c4ccccc34)C(N)=O)C(C)C)C(C)(C)C)(C2)NC1=O (single isomer, unassigned) [FP0568c Isomer 2, Ac-A-R8-I-L-D-A-2pyr-I-MB-tLeu-V-W-NH2]
12 | > 5 µM | CC[C@H](C)[C@@H]1NC(=O)[C@H](Cc2ccccn2)NC(=O)[C@H](C)NC(=O)[C@H](CC(=O)O)NC(=O)[C@H](CC(C)C)NC(=O)[C@H]([C@@H](C)CC)NC(=O)[C@](C)(NC(=O)[C@H](C)NC(C)=O)CCCCCCC=CCOC(=O)N2CC[C@@](C(=O)N[C@@H](Cc3ccco3)C(=O)N[C@H](C(=O)N[C@@H](Cc3c[nH]c4ccccc34)C(N)=O)C(C)C)(C2)NC1=O (single isomer, unassigned) [FP0569c Isomer 1, Ac-A-R8-I-L-D-A-2pyr-I-MB-fur-V-W-NH2]
13 | > 5 µM | CC[C@H](C)[C@@H]1NC(=O)[C@H](Cc2ccccn2)NC(=O)[C@H](C)NC(=O)[C@H](CC(=O)O)NC(=O)[C@H](CC(C)C)NC(=O)[C@H]([C@@H](C)CC)NC(=O)[C@](C)(NC(=O)[C@H](C)NC(C)=O)CCCCCCC=CCOC(=O)N2CC[C@@](C(=O)N[C@@H](Cc3ccco3)C(=O)N[C@H](C(=O)N[C@@H](Cc3c[nH]c4ccccc34)C(N)=O)C(C)C)(C2)NC1=O (single isomer, unassigned) [FP0569c Isomer 2, Ac-A-R8-I-L-D-A-2pyr-I-MB-fur-V-W-NH2]
14 | > 5 µM | CC[C@H](C)[C@@H]1NC(=O)[C@H](Cc2ccccn2)NC(=O)[C@H](C)NC(=O)[C@H](CC(=O)O)NC(=O)[C@H](CC(C)C)NC(=O)[C@H]([C@@H](C)CC)NC(=O)[C@](C)(NC(=O)[C@H](C)NC(C)=O)CCCCCCC=CCOC(=O)N2CC[C@@](C(=O)NC(C)(C)C(=O)N[C@H](C(=O)N[C@@H](Cc3c[nH]c4ccccc34)C(N)=O)C(C)C)(C2)NC1=O (single isomer, unassigned) [FP0570c Isomer 1, Ac-A-R8-I-L-D-A-2pyr-I-MB-Aib-V-W-NH2]
15 | > 5 µM | CC[C@H](C)[C@@H]1NC(=O)[C@H](Cc2ccccn2)NC(=O)[C@H](C)NC(=O)[C@H](CC(=O)O)NC(=O)[C@H](CC(C)C)NC(=O)[C@H]([C@@H](C)CC)NC(=O)[C@](C)(NC(=O)[C@H](C)NC(C)=O)CCCCCCC=CCOC(=O)N2CC[C@@](C(=O)NC(C)(C)C(=O)N[C@H](C(=O)N[C@@H](Cc3c[nH]c4ccccc34)C(N)=O)C(C)C)(C2)NC1=O (single isomer, unassigned) [FP0570c Isomer 2, Ac-A-R8-I-L-D-A-2pyr-I-MB-Aib-V-W-NH2]
